Values after ≈ are worked out from the molar mass of the structure shown.
Legend:
Format in all cases: functional
Candida albicans = assay: Antifungal activity against Candida albicans Berkout KCCM 50235 after 1 day by broth dilution method; settings: KCCM 50235, 24 h
Aspergillus niger = assay: Antifungal activity against Aspergillus niger KCTC 1231 after 2 days by broth dilution method
Candida tropicalis = assay: Antifungal activity against Candida tropicalis Berkout KCCM 50662 after 1 day by broth dilution method
Aspergillus flavus = assay: Antifungal activity against Aspergillus flavus KCCM 11899 after 2 days by broth dilution method
Pichia kudriavzevii = assay: Antifungal activity against Candida krusei Berkout KCCM 11655 after 1 day by broth dilution method; settings: KCCM 11655, 24 h
Cryptococcus neoformans = assay: Antifungal activity against Cryptococcus neoformans KCCM 50564 after 1 day by broth dilution method; settings: KCCM 50564, 24 h
[1] = Aspergillus niger, KCTC 1231, 48 h, read-out: MIC
[2] = Candida tropicalis, KCCM 50662, 24 h, read-out: MIC
[3] = Aspergillus flavus, KCCM 11899, 48 h, read-out: MIC

Row | Compound | MIC (Candida albicans) | MIC (Aspergillus niger; [1]) | MIC (Candida tropicalis; [2]) | MIC (Aspergillus flavus; [3]) | MIC (Pichia kudriavzevii) | MIC (Cryptococcus neoformans) | MIC (Aspergillus niger) | MIC (Candida tropicalis) | MIC (Aspergillus flavus)
1 | Cc1ccc(NC2=CC(=O)c3cnncc3C2=O)cc1C | 3.2 mg/L (≈ 11.5 µM) | > 100 mg/L | 100 mg/L (≈ 358 µM) | > 100 mg/L | 50 mg/L (≈ 179 µM) | 25 mg/L (≈ 89.5 µM) |  |  | 
2 | O=C1C(Sc2ccccc2)=C(Sc2ccccc2)C(=O)c2cnncc21 |  | 6.3 mg/L (≈ 16.7 µM) | 100 mg/L (≈ 266 µM) | > 100 mg/L |  |  | 6.3 mg/L (≈ 16.7 µM) | >100 mg/L | 100 mg/L (≈ 266 µM)
3 | O=C1C(Cl)=C(Nc2cccc(Cl)c2)C(=O)c2cnncc21 | 25 mg/L (≈ 78.1 µM) | 12.5 mg/L (≈ 39 µM) | 25 mg/L (≈ 78.1 µM) | 25 mg/L (≈ 78.1 µM) | 25 mg/L (≈ 78.1 µM) | 3.2 mg/L (≈ 10 µM) |  |  | 
4 | Cc1ccc(NC2=CC(=O)c3cnncc3C2=O)cc1 | 6.3 mg/L (≈ 23.7 µM) | 50 mg/L (≈ 188 µM) | 12.5 mg/L (≈ 47.1 µM) | 25 mg/L (≈ 94.2 µM) | 12.5 mg/L (≈ 47.1 µM) | 6.3 mg/L (≈ 23.7 µM) |  |  | 
5 | O=C1C(Sc2ccc(O)cc2)=C(Sc2ccc(O)cc2)C(=O)c2cnncc21 | 100 mg/L (≈ 245 µM) | > 100 mg/L | > 100 mg/L | > 100 mg/L | > 100 mg/L | > 100 mg/L |  |  | 
6 | Cc1cccc(SC2=C(Sc3cccc(C)c3)C(=O)c3cnncc3C2=O)c1 | 12.5 mg/L (≈ 30.9 µM) | 6.3 mg/L (≈ 15.6 µM) | 50 mg/L (≈ 124 µM) | 100 mg/L (≈ 247 µM) | > 100 mg/L | > 100 mg/L |  |  | 
7 | Nc1ccc(N)c2cnncc12 | > 100 mg/L | > 100 mg/L | > 100 mg/L | 100 mg/L (≈ 624 µM) | 100 mg/L (≈ 624 µM) | 6.3 mg/L (≈ 39.3 µM) |  |  | 
8 | O=C1C=C(Nc2ccc(F)cc2)C(=O)c2cnncc21 | 50 mg/L (≈ 186 µM) | > 100 mg/L | 25 mg/L (≈ 92.9 µM) | 100 mg/L (≈ 371 µM) | 25 mg/L (≈ 92.9 µM) | 6.3 mg/L (≈ 23.4 µM) |  |  | 
9 | COc1ccc(NC2=CC(=O)c3cnncc3C2=O)cc1 | 12.5 mg/L (≈ 44.4 µM) | 25 mg/L (≈ 88.9 µM) | 6.3 mg/L (≈ 22.4 µM) | 25 mg/L (≈ 88.9 µM) | 12.5 mg/L (≈ 44.4 µM) | 6.3 mg/L (≈ 22.4 µM) |  |  | 
10 | O=C1C(Cl)=C(Nc2ccc(Br)cc2)C(=O)c2cnncc21 | 25 mg/L (≈ 68.6 µM) | 25 mg/L (≈ 68.6 µM) | 12.5 mg/L (≈ 34.3 µM) | 25 mg/L (≈ 68.6 µM) | 25 mg/L (≈ 68.6 µM) | 3.2 mg/L (≈ 8.78 µM) |  |  | 
11 | O=C1C(Sc2cccc(Cl)c2)=C(Sc2cccc(Cl)c2)C(=O)c2cnncc21 | 12.5 mg/L (≈ 28.1 µM) | 6.3 mg/L (≈ 14.1 µM) | 100 mg/L (≈ 225 µM) | > 100 mg/L | > 100 mg/L | > 100 mg/L |  |  | 
12 | Nc1nc(=O)[nH]cc1F [FLUCYTOSINE] | 25 mg/L (≈ 194 µM) | 25 mg/L (≈ 194 µM) | 12.5 mg/L (≈ 96.8 µM) | 100 mg/L (≈ 775 µM) | 50 mg/L (≈ 387 µM) | 12.5 mg/L (≈ 96.8 µM) |  |  | 

— ChEMBL document CHEMBL1139171, “Synthesis and antifungal activity of 6-arylamino-phthalazine-5,8-diones and 6,7-bis(arylthio)-phthalazine-5,8-diones” (2007)
